Test results as given in patent publication US6759403B2, “Metalloporphyrins and their uses as radiosensitizers for radiation therapy” (Brookhaven Science Associates, LLC, priority 2001, dated 2004).
Read-outs that look alike come from different tables or passages of the source.

Assays:
EMT-6 mammary carcinomas [1] = settings: 180 μg/gbw CuTCPH, 6 ip injections over 2 days, cited from earlier work
EMT-6 mammary carcinomas [2] = test: CuTCPH boron biodistribution in EMT-6 tumor-bearing mice (prior results, Rad. Res. 155, 603-610, 2001); type: in vivo, BALB/c mice
Method: There is a larger vascular system surrounding the dorsal thorax compared with the leg, which may be a factor. However, in the case of CuTCPH, the boron concentration was 30% higher in leg tumors compared to back tumors. Normalizing to the slightly higher dose of the first study, the tumor boron concentration should be about 29 and 15 μg/g at 2d and 5d, respectively, which are still low. Studies are underway to repeat these experiments.
The biodistribution properties for CuTCPBr are similar to other lipophilic tetracarboranyl tetraphenylporphyrins studied previously, particularly the results for CuTCPH which were reported in Rad. Res. 155, 603-610, 2001 and are listed in columns four and five of Table 4. The CuTCPH results were based on two groups of seven (7) BALB/c mice which were given 180 μg/gbw CuTCPH in six intraperitoneal injections over 2 days. The first group of mice was euthanized two days after the last injection and the second group four days after the last injection. The boron concentrations in different tissues were then measured.

[3] = system: subcutaneous 9L gliosarcomas; test: CuTCPH dose increase and tumor boron concentration in rats with 9L gliosarcomas; type: in vivo, Fischer 344 rats
Text: Toxicity is the critical factor, and since no toxicity was observed, the dose can be increased to achieve tumor boron concentrations higher than those in Examples 2 and 3.

[4] = system: subcutaneous 9L gliosarcomas; test: Boron biodistribution after intravenous infusion in rat 9L gliosarcoma model (Examples 6 and 7); type: in vivo, Fischer 344 rats
Method: This example used the experimental rat 9L gliosarcoma model and the protocol used to administer porphyrins by intravenous infusion that were reported in J. NeuroOncol, 52, 111-117, 2001. Six (6) male Fischer 344 rats bearing subcutaneous 9L gliosarcomas were infused intravenously with CuTCPBr at a total dose of 220 μg/gbw over 48 hours. Tumor and blood were sampled from each at zero, one, two and three days after the end of infusion and the boron concentrations measured. In this example, the biodistribution of CuTCPBr was compared to CuTCPH. A group of six (6) male Fischer 344 rats bearing subcutaneous 9L gliosarcomas were infused intravenously with CuTCPBr at a total dose of 220 μg/gbw over 48 hours. A second group of four (4) male Fischer 344 rats bearing subcutaneous 9L gliosarcomas were infused intravenously with CuTCPH at a total dose of 195 μg/gbw. over 48 hours. Boron concentrations in tissues from both groups of rats were taken three days after the end of infusion. The results for the CuTCPBr group of rats are listed in column 2 of Table 6 and the results for the CuTCPH group of rats are listed in column 4 of Table 6. To account for the difference in porphyrin dose (195 μg/gbw for CuTCPH versus 220 μg/gbw for CuTCPBr) and the difference in % boron in each porphyrin (31.8% for CuTCPH versus 21.7 for CuTCPBr), the boron concentrations in tissues from rats given CuTCPBr were normalized so that they would be equivalent to the boron concentrations of rats given CuTCPH. This was done by multiplying the boron concentrations in the CuTCPBr group of rats by the CuTCPBr to CuTCPH boron dose ratio of 1.3. The normalized boron concentrations for the CuTCPBr group of rats are listed in column 3 of Table 6.

malignant brain tumors = settings: clinical use of BPA; cited from earlier work
[5] = 195 μg/gbw CuTCPH (61.8 μg B/gbw) iv over 48 hours, 3 days after end of infusion

copper tetracarboranylmethoxyphenylporphyrin [CuTCPH]
Boron Concentration, Blood (EMT-6 mammary carcinomas [1]; after 2 days): 0 (0) μg/g | Boron Concentration, Brain (EMT-6 mammary carcinomas [1]; after 2 days): 0.2 (0.1) μg/g | Boron Concentration, Ears (skin) (EMT-6 mammary carcinomas [1]; after 2 days): 8.4 (2.1) μg/g | Boron Concentration, Liver (EMT-6 mammary carcinomas [1]; after 2 days): 562 (79) μg/g | Boron Concentration, Tumor (EMT-6 mammary carcinomas [1]; after 2 days): 62 (10) μg/g | Boron Concentration, Blood (EMT-6 mammary carcinomas [1]; after 4 days): 0.3 (0.1) μg/g | Boron Concentration, Brain (EMT-6 mammary carcinomas [1]; after 4 days): 0.7 (0.3) μg/g | Boron Concentration, Ears (skin) (EMT-6 mammary carcinomas [1]; after 4 days): 14 (2.6) μg/g | Boron Concentration, Liver (EMT-6 mammary carcinomas [1]; after 4 days): 534 (124) μg/g | Boron Concentration, Tumor (EMT-6 mammary carcinomas [1]; after 4 days): 71 (9) μg/g | decrease of liver boron from two to four days (EMT-6 mammary carcinomas [2]; 180 μg/gbw CuTCPH): 5% | boron concentration higher in leg tumors compared to back tumors (EMT-6 mammary carcinomas [2]; CuTCPH, leg versus back tumors): 30% | tumor boron concentration, median ([3]; CuTCPH total dose 195 mg/kg body weight): 64 µg/g | tumor boron concentration, median ([3]; CuTCPH total dose 450 mg/kg body weight): 117 µg/g | Boron Concentration, Brain [4, 5]: 3.2 (1.4) μg/g | Boron Concentration, Kidney [4, 5]: 16 (2) μg/g | Boron Concentration, Lacrimal Gland [4, 5]: 45 (11) μg/g | Boron Concentration, Liver [4, 5]: 638 (53) μg/g | Boron Concentration, Lung [4, 5]: 83 (12) μg/g | Boron Concentration, Lymph Nodes [4, 5]: 284 (68) μg/g | Boron Concentration, Parotid Gland [4, 5]: 125 (26) μg/g | Boron Concentration, Spleen [4, 5]: 832 (169) μg/g | Boron Concentration, Tongue [4, 5]: 47 (11) μg/g | Boron Concentration, Tumor [4, 5]: 63 (23) μg/g | Boron concentration, Ears [4, 5]: 17 (3) μg/g | Toxicity ([4]; rats, 220 μg/gbw CuTCPBr or 195 μg/gbw CuTCPH iv over 48 hours): does not appear to be a major problem

N[C@@H](Cc1ccc(B(O)O)cc1)C(=O)O [BPA, p-boronophenylalanine]
blood boron concentration relative to that found in tumor (malignant brain tumors): approximately one-third | brain boron concentration relative to that found in tumor (malignant brain tumors): approximately one-third | chemical toxicity associated with usage (malignant brain tumors): not eliciting any chemical toxicity
